Measurements taken from ChEMBL document CHEMBL3885881, “DrugMatrix”.

Organism: Rattus norvegicus
Test: DrugMatrix - Regimen: Daily Repeat
Assay type: toxicity, organism-based, Sprague-Dawley
Parameters: regimen Daily Repeat, gender Male, age 6-8 weeks
Conditions: in vivo, po, route oral GAVAGE, vehicle 100 % WATER; for ABSOLUTE BASOPHIL / ABSOLUTE EOSINOPHIL / ABSOLUTE LYMPHOCYTE / ABSOLUTE MONOCYTE / ABSOLUTE SEGMENTED NEUTROPHIL / BASOPHIL / EOSINOPHIL / ERYTHROCYTE COUNT / HEMATOCRIT / HEMOGLOBIN / LEUKOCYTE COUNT / LYMPHOCYTE / MEAN CORPUSCULAR HEMOGLOBIN / MEAN CORPUSCULAR HEMOGLOBIN CONCENTRATION / MEAN CORPUSCULAR VOLUME / MONOCYTE / NEUTROPHIL / NUCLEATED RED BLOOD CELLS / PLATELET COUNT: tissue Blood; for ALANINE AMINOTRANSFERASE / ALBUMIN / ALKALINE PHOSPHATASE / ASPARTATE AMINOTRANSFERASE / BLOOD UREA NITROGEN / CARBON DIOXIDE / CHLORIDE / CHOLESTEROL / CREATINE PHOSPHOKINASE / CREATININE / GLUCOSE / LACTATE DEHYDROGENASE / LIPASE / PHOSPHORUS / POTASSIUM / SODIUM / TOTAL BILIRUBIN / TOTAL PROTEIN / URIC ACID: tissue Plasma
[1] = 0 mg/kg, 72 h, dose level Control, time 3 day
[2] = 0 mg/kg, 120 h, dose level Control, time 5 day
[3] = 200 mg/kg, 72 h, dose level Low, time 3 day

O=C(O)c1cccnc1 [NIACIN]
ABSOLUTE BASOPHIL [1]: 0 CELLS/uL
ABSOLUTE EOSINOPHIL [1]: 0 CELLS/uL
ABSOLUTE LYMPHOCYTE [1]: 10386.33 CELLS/uL
ABSOLUTE MONOCYTE [1]: 88.5 CELLS/uL
ABSOLUTE SEGMENTED NEUTROPHIL [1]: 1008.5 CELLS/uL
BASOPHIL [1]: 0%
EOSINOPHIL [1]: 0%
ERYTHROCYTE COUNT [1]: 5.16 x10E6/uL
HEMATOCRIT [1]: 32.43%
HEMOGLOBIN [1]: 12.98 G/DL
LEUKOCYTE COUNT [1]: 11.48 x10E3/uL
LYMPHOCYTE [1]: 92.33%
MEAN CORPUSCULAR HEMOGLOBIN [1]: 25.23 pg
MEAN CORPUSCULAR HEMOGLOBIN CONCENTRATION [1]: 40.08 G/DL
MEAN CORPUSCULAR VOLUME [1]: 62.95 fL
MONOCYTE [1]: 0.67%
NEUTROPHIL [1]: 7%
NUCLEATED RED BLOOD CELLS [1]: 0 /100WBC
PLATELET COUNT [1]: 1016.67 x10E3/uL
ALANINE AMINOTRANSFERASE [1]: 62.17 u/L
ALBUMIN [1]: 3.95 G/DL
ALKALINE PHOSPHATASE [1]: 363.5 u/L
ASPARTATE AMINOTRANSFERASE [1]: 118 u/L
BLOOD UREA NITROGEN [1]: 14.5 mg/dL
CARBON DIOXIDE [1]: 22.83 mmol/L
CHLORIDE [1]: 100.67 MEQ/L
CHOLESTEROL [1]: 66 mg/dL
CREATINE PHOSPHOKINASE [1]: 1308.83 u/L
CREATININE [1]: 0.22 mg/dL
GLUCOSE [1]: 187.5 mg/dL
LACTATE DEHYDROGENASE [1]: 380.17 u/L
LIPASE [1]: 16.17 u/L
PHOSPHORUS [1]: 14.27 mg/dL
POTASSIUM [1]: 6.8 MEQ/L
SODIUM [1]: 142.53 MEQ/L
TOTAL BILIRUBIN [1]: 0.2 mg/dL
TOTAL PROTEIN [1]: 5.68 G/DL
URIC ACID [1]: 2.87 mg/dL
ABSOLUTE BASOPHIL [2]: 0 CELLS/uL
ABSOLUTE EOSINOPHIL [2]: 80 CELLS/uL
ABSOLUTE LYMPHOCYTE [2]: 13301.33 CELLS/uL
ABSOLUTE MONOCYTE [2]: 180.83 CELLS/uL
ABSOLUTE SEGMENTED NEUTROPHIL [2]: 1187.83 CELLS/uL
BASOPHIL [2]: 0%
EOSINOPHIL [2]: 0.5%
ERYTHROCYTE COUNT [2]: 5.54 x10E6/uL
HEMATOCRIT [2]: 35.65%
HEMOGLOBIN [2]: 14.22 G/DL
LEUKOCYTE COUNT [2]: 14.75 x10E3/uL
LYMPHOCYTE [2]: 90.67%
MEAN CORPUSCULAR HEMOGLOBIN [2]: 25.65 pg
MEAN CORPUSCULAR HEMOGLOBIN CONCENTRATION [2]: 39.88 G/DL
MEAN CORPUSCULAR VOLUME [2]: 64.35 fL
MONOCYTE [2]: 1%
NEUTROPHIL [2]: 7.83%
NUCLEATED RED BLOOD CELLS [2]: 0.17 /100WBC
PLATELET COUNT [2]: 1285.33 x10E3/uL
ALANINE AMINOTRANSFERASE [2]: 51.67 u/L
ALBUMIN [2]: 4.08 G/DL
ALKALINE PHOSPHATASE [2]: 391.5 u/L
ASPARTATE AMINOTRANSFERASE [2]: 99.5 u/L
BLOOD UREA NITROGEN [2]: 15.5 mg/dL
CARBON DIOXIDE [2]: 28.33 mmol/L
CHLORIDE [2]: 101.83 MEQ/L
CHOLESTEROL [2]: 67.83 mg/dL
CREATINE PHOSPHOKINASE [2]: 771.33 u/L
CREATININE [2]: 0.23 mg/dL
GLUCOSE [2]: 156.5 mg/dL
LACTATE DEHYDROGENASE [2]: 544.33 u/L
LIPASE [2]: 10.17 u/L
PHOSPHORUS [2]: 12.03 mg/dL
POTASSIUM [2]: 6.81 MEQ/L
SODIUM [2]: 144.13 MEQ/L
TOTAL BILIRUBIN [2]: 0.22 mg/dL
TOTAL PROTEIN [2]: 6 G/DL
URIC ACID [2]: 2.18 mg/dL
ABSOLUTE BASOPHIL [3]: 0 CELLS/uL
ABSOLUTE EOSINOPHIL [3]: 118.67 CELLS/uL
ABSOLUTE LYMPHOCYTE [3]: 13131.33 CELLS/uL
ABSOLUTE MONOCYTE [3]: 410.33 CELLS/uL
ABSOLUTE SEGMENTED NEUTROPHIL [3]: 1606.33 CELLS/uL
BASOPHIL [3]: 0%
EOSINOPHIL [3]: 0.67%
ERYTHROCYTE COUNT [3]: 5.09 x10E6/uL
HEMATOCRIT [3]: 32.87%
HEMOGLOBIN [3]: 13.13 G/DL
LEUKOCYTE COUNT [3]: 15.27 x10E3/uL
LYMPHOCYTE [3]: 86%
MEAN CORPUSCULAR HEMOGLOBIN [3]: 25.8 pg
MEAN CORPUSCULAR HEMOGLOBIN CONCENTRATION [3]: 39.97 G/DL
MEAN CORPUSCULAR VOLUME [3]: 64.6 fL
MONOCYTE [3]: 2.67%
NEUTROPHIL [3]: 10.67%
NUCLEATED RED BLOOD CELLS [3]: 0 /100WBC
PLATELET COUNT [3]: 1167 x10E3/uL
ALANINE AMINOTRANSFERASE [3]: 51 u/L
ALBUMIN [3]: 4 G/DL
ALKALINE PHOSPHATASE [3]: 346.33 u/L
ASPARTATE AMINOTRANSFERASE [3]: 113.33 u/L
BLOOD UREA NITROGEN [3]: 12 mg/dL
CARBON DIOXIDE [3]: 23.33 mmol/L
CHLORIDE [3]: 103.33 MEQ/L
CHOLESTEROL [3]: 74.67 mg/dL
CREATINE PHOSPHOKINASE [3]: 1459.33 u/L
CREATININE [3]: 0.2 mg/dL
GLUCOSE [3]: 170 mg/dL
LACTATE DEHYDROGENASE [3]: 168.33 u/L
LIPASE [3]: 11 u/L
PHOSPHORUS [3]: 12.67 mg/dL
POTASSIUM [3]: 5.75 MEQ/L
SODIUM [3]: 144.4 MEQ/L
TOTAL BILIRUBIN [3]: 0.2 mg/dL
TOTAL PROTEIN [3]: 5.8 G/DL
URIC ACID [3]: 1.1 mg/dL
